# Results reported in paper PMC7083565, “In vitro metabolism, reaction phenotyping, enzyme kinetics, CYP inhibition and induction potential of ataluren” (Pharmacology Research & Perspectives, 2020).
# Read-outs that look alike come from different tables or passages of the source.
# Assays:
# UGT1A9 = biological target: T1, UGT1A9 (Homo sapiens, UniProt O60656); assay: Ataluren glucuronidation kinetics, recombinant human UGT1A9; type: in vitro ADME; details: for K m / K m, u / V max: mean ± SE; for K m / K m, u / V max / fraction unbound at 15 min: n = 3; for microsomal CLint / fraction unbound at 15 min: human; for microsomal CLint: read-out: CLint,u,UGT; for fraction unbound at 15 min: recombinant human UGT1A9 incubation mixture, mean ± SD, read-out: fu,inc
# T1 construct: purchased BD Biosciences; host or cells: baculovirus-infected insect cells
# T1 sequence (O60656 26-530): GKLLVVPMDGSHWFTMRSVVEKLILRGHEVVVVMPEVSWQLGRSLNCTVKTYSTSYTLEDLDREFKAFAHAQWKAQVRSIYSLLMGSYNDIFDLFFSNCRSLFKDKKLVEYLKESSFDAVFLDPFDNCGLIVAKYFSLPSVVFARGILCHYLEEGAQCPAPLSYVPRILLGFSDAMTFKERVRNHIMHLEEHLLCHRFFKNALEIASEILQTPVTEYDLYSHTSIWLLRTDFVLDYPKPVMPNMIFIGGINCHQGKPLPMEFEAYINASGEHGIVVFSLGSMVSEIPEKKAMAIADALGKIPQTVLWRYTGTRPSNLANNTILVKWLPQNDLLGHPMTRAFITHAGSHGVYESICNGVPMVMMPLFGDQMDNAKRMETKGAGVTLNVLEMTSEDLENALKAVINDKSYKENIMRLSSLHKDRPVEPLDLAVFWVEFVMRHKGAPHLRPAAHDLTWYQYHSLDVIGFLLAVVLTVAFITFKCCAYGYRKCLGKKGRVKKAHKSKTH
# Protocol: Ataluren at 0.5, 2.5, 12.5, 25, 50, 100, 200, and 400 µmol/L, was incubated (n = 3) at 37°C with recombinant human UGT1A9 and with pooled microsomes from human liver, kidney, and intestine (0.025 mg protein/mL, preactivated with alamethicin at 20 µg/mL) in Tris‐HCl buffer (0.1 mol/L, pH 7.5), in the presence of 1 mmol/L EDTA, 5 mmol/L MgCl2, with or without 0.5%, 1%, or 2% BSA. The incubation (100 µL final volume with 0.5% DMSO) was started by adding an equal volume of UDPGA (5 mmol/L) in Tris‐HCl buffer (0.1 mol/L, pH 7.5). After 30 minutes incubation, the incubation mixtures were combined with 0.3 mL of an internal standard solution in acetonitrile with 1% formic acid, followed by membrane plate filtration. The filtrates were used for LC‐MS/MS analysis to quantify the formation of ataluren‐O‐1β‐acyl glucuronide. Detailed LC‐MS/MS conditions are summarized in LC‐MS/MS Analysis section. Ataluren acyl glucuronide formation rate after 30 minutes incubation was calculated using the amount of metabolite formed (pmol) divided by the protein amount in the incubation sample (0.0025 mg) and the incubation time (30 minutes). Ataluren glucuronidation kinetic parameters were determined with and without adjusting BSA binding by nonlinear regression (GraphPad Prism, 5version 5.04, GraphPad Software, Inc.) using Michaelis‐Menten equation which was the best fit compared with other models. The intrinsic clearance was calculated as CLint = Vmax/Km. In order to compare unbound intrinsic clearance by glucuronidation (CLint,u,UGT) in different tissues, CLint,u,UGT was expressed per gram of tissue by correcting the values for the microsomal protein yield, resulting in scaled CLint,u,UGT. Microsomal protein yields of 40.0, 12.8, and 20.6 mg protein/g tissue were used for hepatic, renal, and intestinal data, respectively. ^26
# The high‐throughput membrane ultrafiltration method ^27 was used to determine the fraction unbound in the incubation (n = 3). Incubation mixtures and procedures were essentially the same as the above except that UDPGA (5 mmol/L) was replaced with Tris‐HCl buffer (0.1 mol/L, pH 7.5). After 15 minutes incubation, aliquot was transferred to a Millipore Multiscreen Ultracel‐10 filter plate (10 kDa molecular mass cut off; EMD Millipore). The plate was centrifuged at 37°C and 3710 g. After 30 minutes centrifugation, aliquots of ultrafiltrates and incubation mixtures prior to ultrafiltration were quenched with an internal standard solution in acetonitrile, followed by membrane plate filtration. The filtrates were used for LC‐MS/MS analysis to quantify the concentration of ataluren. The same LC‐MS/MS conditions described above are summarized in LC‐MS/MS Analysis section. The free fraction = Cu/Cm, where Cu is the concentration of ataluren in the ultrafiltrate and Cm is the concentration of ataluren in the incubation system before centrifugation. Unbound Km (Km, u) was recalculated by applying Michaelis‐Menten equation using free ataluren concentrations after correcting BSA binding at each ataluren and BSA concentration level.
# Quantification of ataluren‐O‐1β‐acyl glucuronide formation was conducted on an Accela pump and a PAL autosampler equipped with a TSQ Quantum Ultra mass spectrometer (Thermo Fisher Scientific). A Waters Acquity BEH column (C18, 1.7 µm, 50 × 2.1 mm; Waters Cooperation) was used and maintained at 50°C. The mobile phases were 0.1% formic acid in water (A) and acetonitrile (B). The flow rate was 0.6 mL/min and gradient program was as follows: linear gradient from 0% B to 95% B in 0.5 minutes and hold isocratic at 95% B for 1 minute; linear gradient from 95% B to 0% B in 0.1 minutes and hold isocratic at 0% B for 0.4 minutes. TSQ Quantum Ultra mass spectrometer was equipped with a heated electrospray ionization source operated in negative‐ion mode with a vaporizer temperature of 350°C, capillary temperature of 380°C, and spray voltage of 3 kV. […]
# human hepatocytes = assay: MTT cytotoxicity assay in human hepatocytes; type: cell-based; details: at the concentrations tested (4, 40, 400 µmol/L), data not shown
smiles,measurement,setting,value
"O=C(O)c1cccc(-c2noc(-c3ccccc3F)n2)c1 [ataluren, Ataluren]",K m,"UGT1A9; UGT1A9, 0% BSA",4.76 ± 0.934 µM
same,"K m, u","UGT1A9; UGT1A9, 0% BSA",4.76 ± 0.934 µM
same,V max,"UGT1A9; UGT1A9, 0% BSA",1058 ± 31.8 pmol/min/mg
same,K m,"UGT1A9; UGT1A9, 0.5% BSA",26.4 ± 2.80 µM
same,"K m, u","UGT1A9; UGT1A9, 0.5% BSA",2.71 ± 0.309 µM
same,V max,"UGT1A9; UGT1A9, 0.5% BSA",752 ± 20.3 pmol/min/mg
same,K m,"UGT1A9; UGT1A9, 1% BSA",45.6 ± 3.83 µM
same,"K m, u","UGT1A9; UGT1A9, 1% BSA",2.52 ± 0.243 µM
same,V max,"UGT1A9; UGT1A9, 1% BSA",842 ± 23.0 pmol/min/mg
same,K m,"UGT1A9; UGT1A9, 2% BSA",83.4 ± 15.3 µM
same,"K m, u","UGT1A9; UGT1A9, 2% BSA",2.46 ± 0.498 µM
same,V max,"UGT1A9; UGT1A9, 2% BSA",847 ± 56.2 pmol/min/mg
same,microsomal CLint,"UGT1A9; recombinant human UGT1A9, pH 7.5, UGT1A9, 0% BSA",222 µL/min/mg
same,microsomal CLint,"UGT1A9; recombinant human UGT1A9, pH 7.5, UGT1A9, 0.5% BSA",277 µL/min/mg
same,microsomal CLint,"UGT1A9; recombinant human UGT1A9, pH 7.5, UGT1A9, 1% BSA",334 µL/min/mg
same,microsomal CLint,"UGT1A9; recombinant human UGT1A9, pH 7.5, UGT1A9, 2% BSA",344 µL/min/mg
same,fraction unbound at 15 min,"UGT1A9; pH 7.5, UGT1A9, 0% BSA",1 ± 0.5
same,fraction unbound at 15 min,"UGT1A9; pH 7.5, UGT1A9, 0.5% BSA",0.116 ± 0.019
same,fraction unbound at 15 min,"UGT1A9; pH 7.5, UGT1A9, 1% BSA",0.064 ± 0.007
same,fraction unbound at 15 min,"UGT1A9; pH 7.5, UGT1A9, 2% BSA",0.035 ± 0.003
same,"maximal effect of BSA on CLint,u (increase)","UGT1A9; recombinant UGT1A9, with vs without BSA",approximately 1.6 fold
same,cytotoxicity (MTT assay),human hepatocytes,not cytotoxic
